Activity calls are given as the source filed them. The calls are words filed in the database; no cut-off is given here. Numbered stars: 1 amine (or outer) side, 2 acyl side, 3 side chain; on linkers, the order of the positions; unused ones are H or OH. Square brackets hold non-standard residues; d marks the D form. Peptide text beside a SMILES is read from it. X1 = O=C(c1ccc(C[C@H](N[*:1])C(=O)[*:2])cc1)P(=O)(O)O
Legend:
[1] = Photodimerization of the compound exposed to UV irradiation in presence of DTT; type: physicochemical
[2] = Photodimerization of the compound exposed to UV irradiation in presence of TEMPO radical; type: physicochemical
[3] = molecular target: T1, Tyrosine-protein phosphatase non-receptor type 1 (Homo sapiens, UniProt P18031); test: Inhibition of PTP1B catalytic domain (1 to 321 amino acids) (unknown origin) expressed in Escherichia coli Rosetta (DE3) incubated for 30 mins in absence of UV irradiation with 365 nm for 45 mins by pNPP assay
T1 sequence (P18031 whole entry): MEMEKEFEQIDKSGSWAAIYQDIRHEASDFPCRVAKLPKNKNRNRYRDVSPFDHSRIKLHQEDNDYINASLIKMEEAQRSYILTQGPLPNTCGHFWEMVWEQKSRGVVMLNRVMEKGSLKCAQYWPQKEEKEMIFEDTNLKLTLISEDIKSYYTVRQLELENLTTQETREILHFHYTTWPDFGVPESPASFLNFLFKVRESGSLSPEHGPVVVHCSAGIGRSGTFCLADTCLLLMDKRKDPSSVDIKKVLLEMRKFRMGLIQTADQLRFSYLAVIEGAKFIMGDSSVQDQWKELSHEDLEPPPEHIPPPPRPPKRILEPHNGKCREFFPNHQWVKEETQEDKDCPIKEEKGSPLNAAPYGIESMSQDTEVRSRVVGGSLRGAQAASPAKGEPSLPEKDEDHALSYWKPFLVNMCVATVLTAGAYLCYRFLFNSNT

[4] = molecular target: T1, Tyrosine-protein phosphatase non-receptor type 1; test: Inhibition of PTP1B catalytic domain (1 to 321 amino acids) (unknown origin) expressed in Escherichia coli Rosetta (DE3) incubated for 30 mins followed by UV irradiation with 365 nm for 45 mins by pNPP assay
[5] = molecular target: T1, Tyrosine-protein phosphatase non-receptor type 1; test: Inhibition of PTP1B catalytic domain (1 to 321 amino acids) (unknown origin) expressed in Escherichia coli Rosetta (DE3) incubated for 30 mins in absence of UV irradiation with 365 nm for 45 mins and in presence of 1 mM DTT by pNPP assay
[6] = molecular target: T1, Tyrosine-protein phosphatase non-receptor type 1; test: Inhibition of PTP1B catalytic domain (1 to 321 amino acids) (unknown origin) expressed in Escherichia coli Rosetta (DE3) incubated for 30 mins followed by UV irradiation with 365 nm for 45 mins in presence of 1 mM DTT by pNPP assay
[7] = molecular target: T2, Tyrosine-protein phosphatase non-receptor type 1 (Homo sapiens) (UniProt P18031); settings: 35 uM
T2 sequence (whole entry): T1 sequence (P18031 whole entry)
Description: Inhibition of PTP1B catalytic domain (1 to 321 amino acids) (unknown origin) expressed in Escherichia coli Rosetta (DE3) at 35 uM incubated for 30 mins followed by UV irradiation with 365 nm for 45 mins in presence of 100 uM DTT by pNPP assay

[8] = molecular target: T2, Tyrosine-protein phosphatase non-receptor type 1 (Homo sapiens); settings: 10 uM
Description: Inhibition of PTP1B catalytic domain (1 to 321 amino acids) (unknown origin) expressed in Escherichia coli Rosetta (DE3) at 10 uM incubated for 30 mins followed by UV irradiation with 365 nm for 45 mins by pNPP assay

[9] = molecular target: T2, Tyrosine-protein phosphatase non-receptor type 1 (Homo sapiens); settings: 10 uM; remark: listed apart in the source
Description: Inhibition of PTP1B catalytic domain (1 to 321 amino acids) (unknown origin) expressed in Escherichia coli Rosetta (DE3) at 10 uM incubated for 30 mins followed by UV irradiation with 365 nm for 45 mins in presence of 1 mM DTT by pNPP assay

Structure (SMILES) | Activity [1] | Activity [2] | Ki [3] [µM] | Ki [4] [µM] | Ki [5] [µM] | Ki [6] [µM] | inhibition [7] | inhibition [8] | inhibition [9]
Cc1ccc(C(=O)P(=O)(O)O)cc1 | Not Active | Not Active | – | – | – | – | – | – | –
CC(=O)N[C@@H](CC(=O)O)C(=O)N[C@@H](C)C(=O)N[C@@H](CC(=O)O)C(=O)N[C@@H](CCC(=O)O)C(=O)N[C@@H](Cc1ccc(C(=O)P(=O)(O)O)cc1)C(=O)N[C@@H](CC(C)C)C(N)=O (Ac-DADE[X1]L-NH2) | – | – | 30 | 0.39 | 17.3 | 12.9 | inactive | – | –
CC[C@H](C)[C@H](NC(=O)[C@H](Cc1ccc(C(=O)P(=O)(O)O)cc1)NC(=O)[C@H](CC(N)=O)NC(C)=O)C(=O)N[C@@H](CC(=O)O)C(=O)N[C@@H](CC(C)C)C(=O)N[C@@H](CC(=O)O)C(N)=O (Ac-N[X1]IDLD-NH2) | – | – | 48.8 | 0.41 | – | – | – | Active | inactive
